Measured values reported in patent publication US10023532B2, “Alkyl phenyl sulfide derivative and pest control agent” (KUMIAI CHEMICAL INDUSTRY CO., LTD., priority 2012, dated 2018).

Assays:
[1] = tested on: Nilaparvata lugens Stál (brown rice planthopper); test: Insecticidal activity test for Nilaparvata lugens Stál (brown rice planthopper); assay type: in vivo; settings: active ingredient concentration 100 ppm, sprouting unhulled rice immersed, 10 3-instar larvae, 25° C., after 6 days, no replication; for mortality at 100 ppm: Nilaparvata lugens, 144 h
Protocol: A wettable powder prepared based on Formulation Example 2 was diluted with water into an active ingredient concentration of 100 ppm. In the solution was immersed sprouting unhulled rice. They were placed in a 60-ml plastic cup. Thereinto were released 10 3-instar larvae of brown rice planthopper. The cup was covered with a lid and placed in a thermostat of 25° C. After 6 days, the number of living insects was counted and the mortality of insect was determined from the calculation formula of the following Mathematical Expression 2. This test was conducted with no replication. Mortality (%)=100−[(number of living insects after 6 days)/(number of tested insects)]×100 [Mathematical Expression 2]
As in the case of Test Example 1, tests similar to the above were conducted using, as comparative compounds, compound Nos. 22 and 23 described in JP-A-1975-29744, compound Nos. 4, 5, 6 described in JP-A-1976-19121 and compound Nos. 18, 19 and 36 described in JP-A-1988-41451.

[2] = tested on: Tetranychus urticae Koch (two spotted spider mite); test: Control effect test for Tetranychus urticae Koch (two spotted spider mite); assay type: in vivo; settings: active ingredient concentration 4 ppm, soybean seedlings with 35 female adults immersed, 25° C., after 13 days, no replication; for pest or weed control at 4 ppm: Tetranychus urticae, 312 h
Protocol: A wettable powder prepared based on Formulation Example 2 was diluted with water into an active ingredient concentration of 4 ppm. In the solution were immersed soybean seedlings which had been inoculated with 35 female adults of two spotted spider mite. The soybean seedlings were dried in the air and placed in a thermostat of 25° C. After 13 days, the number of living female adults was examined and the control value of the active ingredient was determined using the calculation formula of the following Mathematical Expression 1. This test was conducted with no replication. Control value=100−[(number of living female adults after 13 days, in treated seedlings)/(number of living female adults after 13 days, in non-treated seedlings)]×100 [Mathematical Expression 1]
Tests similar to the above were conducted using, as comparative compounds, compound Nos. 22 and 23 described in JP-A-1975-29744, compound Nos. 3, 4, 5, 6 described in JP-A-1976-19121 and compound Nos. 18, 19 and 36 described in JP-A-1988-41451. The structures of these comparative compounds are as follows.

`[O-][S+](CC(F)(F)F)c1cc(OCCCCCSC(F)(F)F)c(F)cc1Cl` (racemic) [A-0434, 5-trifluoromethylthiopentyl-[4-chloro-2-fluoro-5-(2,2,2-trifluoroethylsulfinyl)phenyl] ether] showed a mortality at 100 ppm [1] of at least 90% and a pest or weed control at 4 ppm [2] of at least 90%.
Compound `Cc1cc(F)c(OCCCCC(C)(C)C)cc1SCC(F)(F)F` [A-0085, 5,5-dimethylhexyl-[2-fluoro-4-methyl-5-(2,2,2-trifluoroethylthio)phenyl] ether] has a mortality at 100 ppm [1] of at least 90% and a pest or weed control at 4 ppm [2] of at least 90%.
`Cc1cc(F)c(OCCCCC(C)(C)C)cc1[S+]([O-])CC(F)(F)F` (stereo not shown) [A-0086, 5,5-dimethylhexyl-[2-fluoro-4-methyl-5-(2,2,2-trifluoroethylsulfinyl)phenyl] ether] gave a mortality at 100 ppm [1] of at least 90% and a pest or weed control at 4 ppm [2] of at least 90%.
`Fc1cc(Cl)c(SCC(F)(F)F)cc1OCCCCCSC(F)(F)F` [A-0433, 5-trifluoromethylthiopentyl-[4-chloro-2-fluoro-5-(2,2,2-trifluoroethylthio)phenyl] ether] was tested, and the mortality at 100 ppm [1] was at least 90%.
Work on `Cc1ccc(OCCCCCSC(F)(F)F)cc1SCC(F)(F)F` [A-0438, 5-trifluoromethylthiopentyl-[4-methyl-3-(2,2,2-trifluoroethylthio)phenyl] ether] yielded a mortality at 100 ppm [1] of at least 90% and a pest or weed control at 4 ppm [2] of at least 90%.
`Cc1ccc(OCCCCCSC(F)(F)F)cc1[S+]([O-])CC(F)(F)F` (stereo not shown) [A-0439, 5-trifluoromethylthiopentyl-[4-methyl-3-(2,2,2-trifluoroethylsulfinyl)phenyl] ether] gave a mortality at 100 ppm [1] of at least 90% and a pest or weed control at 4 ppm [2] of at least 90%.
`FC(F)(F)CSc1cc(OCCCCCCSC(F)(F)F)c(Cl)cc1Cl` [A-0478, 6-trifluoromethylthiohexyl-[2,4-dichloro-5-(2,2,2-trifluoroethylthio)phenyl] ether] showed a pest or weed control at 4 ppm [2] of at least 90%.
For `[O-][S+](CC(F)(F)F)c1cc(OCCCCCCSC(F)(F)F)c(Cl)cc1Cl` (stereo not shown) [A-0479, 6-trifluoromethylthiohexyl-[2,4-dichloro-5-(2,2,2-trifluoroethylsulfinyl)phenyl] ether], the pest or weed control at 4 ppm [2] was at least 90%.
For `Cc1cc(C)c([S+]([O-])CC(F)(F)F)cc1OCCCCCCSC(F)(F)F` (stereo not shown) [A-0481, 6-trifluoromethylthiohexyl-[2,4-dimethyl-5-(2,2,2-trifluoroethylsulfinyl)phenyl]ether], the pest or weed control at 4 ppm [2] was at least 90%.
For `[O-][S+](CC(F)(F)F)c1cc(OCCc2ccc(C(F)(F)F)cc2)c(Cl)cc1Cl` (stereo not shown) [A-0767, 2-(4-trifluoromethylphenyl)ethyl-[2,4-dichloro-5-(2,2,2-trifluoroethylsulfinyl)phenyl] ether], the pest or weed control at 4 ppm [2] was at least 90%.
`Cc1cc(C)c([S+]([O-])CC(F)(F)F)cc1OCCc1ccc(OC(F)(F)F)cc1` (stereo not shown) [A-0783, 2-(4′-trifluoromethoxyphenyl)ethyl-[2,4-dimethyl-5-(2,2,2-trifluoroethylsulfinyl)phenyl] ether] gave a pest or weed control at 4 ppm [2] of at least 90%.
`Cc1cc(F)c(O)cc1SCC(F)(F)F` [C-0001, 2-fluoro-4-methyl-5-(2,2,2-trifluoroethylthio)phenol] gave a mortality at 100 ppm [1] of at least 90%.
For `C#CCOc1ccc(C)c(SCCC)c1` [compound 3], the control value [2] was “no activity”.
With `C#CCOc1ccc(C)c([S+]([O-])CCC)c1` (stereo not shown) [compound 4] the mortality [1] was “no activity” and the control value [2] was “no activity”.
`CCCSc1cc(OCC=CCl)ccc1C` [compound 5] was tested, and the mortality [1] was “no activity” and the control value [2] was “no activity”.
With `CCC[S+]([O-])c1cc(OCC=CCl)ccc1C` (stereo not shown) [compound 6] the mortality [1] was “no activity” and the control value [2] was “no activity”.
With `CCCSc1cc(OCc2ccc(Cl)cc2)ccc1C` [compound 18] the mortality [1] was “no activity” and the control value [2] was “no activity”.
In the case of `CCC[S+]([O-])c1cc(OCc2ccc(Cl)cc2)ccc1C` (stereo not shown) [compound 19], the mortality [1] is reported as “no activity” and the control value [2] is reported as “no activity”.
For `CCCCCCOc1ccc(Cl)c(SCCC)c1` [compound 22], the mortality [1] was “no activity” and the control value [2] was “no activity”.
With `CCCCCCOc1ccc(Cl)c([S+]([O-])CCC)c1` (stereo not shown) [compound 23] the mortality [1] was “no activity” and the control value [2] was “no activity”.
`CCCSc1cc(OCCCSCc2ccccc2)ccc1C` [compound 36] was tested, and the mortality [1] was “no activity” and the control value [2] was “no activity”.
